Drawing on US20240261319A1, “ANTI-FUNGAL COMPOSITION DERIVED FROM HESPERALOE” (Kimberly-Clark Worldwide, Inc., priority 2021, published 2024), this text covers MIC for 1 compound.

In this assay the test system is Candida albicans. Briefly: Minimum inhibitory concentration (MIC) testing, two-fold broth dilution in YPD, OD620. The class given is cell-based. Particulars: C. albicans (ATCC) in YPD broth, two-fold dilutions starting at 200, 30° C., 18-24 hours. How it is done:
Candida albicans, was purchased from ATCC. Thirty-five samples derived from KC Hesperaloe funifera, crude extracts and selected fractions (Table 1) were screened for the inhibition of growth of candida.
Minimum inhibitory concentration (MIC) testing was performed. Two-fold dilutions of sample prepared in C. albicans growth medium (Yeast Peptone Dextrose, YPD) broth, starting at 200 µg/mL. Then inoculum added and incubated at 30° C. for 18-24 hours, and OD620 was determined. T-test was used to determine statistically significant decreases in growth ([…]). Controls included Ketoconazole (50 µg/mL, Keto50), Neg (media with DMSO only, no inoculum), Pos (media with DMSO and inoculum), and YPD (broth only). In wells with decreased growth, wells were mixed by pipetting, and […] samples were plated on YPD agar to determine whether viable C. albicans were present, as an estimation of minimum fungicidal concentration (MFC).

Converted amounts (≈) assume the structure as drawn.

As to `CC(=O)N1CCN(c2ccc(OCC3COC(Cn4ccnc4)(c4ccc(Cl)cc4Cl)O3)cc2)CC1` (stereo not shown) [Ketoconazole], the minimum inhibitory concentration (MIC) (as a rule, the smallest concentration in the dilution series that meets the test's criterion for growth inhibition) was determined as 25 mg/mL (≈ 47 mM).
